# Columns and labels:
# [1] = tested on: Dutch Belted rabbit corneas; experiment: Safety of glyceraldehyde in rabbits, slit lamp examination scores (Example 1); format: in vivo; settings: 500 IU hyaluronidase day 1, 3% glyceraldehyde 20 μL intrastromal day 8, then 1 drop three times a day, 50 days, control BSS
# Excerpt: In this Example, the safety of treating Dutch Belted rabbit corneas with glyceraldehyde following administration of the corneal softening enzyme hyaluronidase was investigated. This study involved the use of five (5) pigmented Dutch Belted rabbits, two (2) in the control group and three (3) in the glyceraldehyde treated group.
# All rabbits received a thorough slit lamp examination on the first day of the study to establish the baseline using the following technique. A Nikon FS-2 Slit Lamp was used for the examinations of the test animals. For each animal examined, the eyes were dilated by instilling one drop of 1.0% tropicamide (Bausch and Lomb, Tampa, Fla.) and 2.5% phenylephrine (Bausch and Lomb, Tampa, Fla.). The animal was then positioned in front of a slit lamp. The corneas of each animal were examined for edema and the surface area involved with edema was estimated. The anterior chambers of the animals were closely examined for chamber depth, aqueous cell and flare, and fibrin. The iris of each animal was examined for atrophy, symmetry, or synechiae. The lens was examined and cellular debris, capsule, or lens protein abnormalities were noted if present. The vitreous humor of each animal were then examined for the presence of cells or other abnormnalities. […]
# Dutch Belted rabbit eyes = experiment: Histopathology of eyes after corneal scraping (Example 2); format: in vivo; settings: one of the four glyceraldehyde treated eyes; presumably due to scraping
# Experimental: The study animals were sacrificed on Study Day 74 with an intravenous injection of pentobarbital (2 mg/kg). Eyes from the study animals were enucleated immediately post-sacrifice and placed in labeled tubes containing approximately 5 mL of half-strength Kamovsky's fixative (2.5% glutaraldehyde, 2.5% paraformaldehyde, 2.5 mM CaCl2, 100 mM Na Cacodylate, pH 7.4) for approximately 1 hour. The eyes were removed and small windows (1×3 mm) were made in the cornea/iris to allow penetration of the fixative to the vitreous. The eyes were then placed in 25 mL of fresh fixative. The fixed eyes were then sent to Consolidated Veterinary Diagnostics, Inc. (West Sacramento, Calif.) where they underwent routine tissue processing, sectioning, and staining with hematoxylin/eosin. They were examined by a Board Certified Veterinary Pathologist.
# The eyes which had undergone corneal scraping and a subsequent healing period were sent to Consolidated Veterinary Diagnostics for tissue processing and pathologic interpretation. In toto, 4 eyes from the glyceraldehyde treated group and 2 eyes from the BSS group were evaluated. […] This description would imply a response to injury (presumably the scraping).
# [2] = tested on: eyes of non-sighted human patients; experiment: Safety of non-enzymatic corneaplasty and topical 3% glyceraldehyde in five non-sighted human patients (Example 5); format: in vivo; settings: lenses 7 days, then 3% glyceraldehyde plus lenses 28 days, only minor incidents of SPK
# Experimental: In this study five non-sighted patients with good corneas were treated with contact lenses and a 3% glyceraldehyde solution to determine the safety of this procedure. Here, the patients were fitted with and wore contact lenses for seven (7) days. Following this period a 3% glyceraldehyde solution (described above) was applied to the eyes and the contact lens wear continued for twenty-eight (28) days. After this period both the contact lens wear and the glyceraldehyde treatment ceased.
# The patients were individually examined for the effects of the treatments following removal of the lenses and cessation of the glyceraldehyde treatment. The first examination was on the last day of treatment, and five (5) subsequent examinations were administered over a one month period.
# cornea = experiment: Corneal elasticity, recovery from indentation by spherical glass indentor (Example 7); format: in vivo, human
# Experimental: A precision spherical glass indentor was used to contact the corneal surface of subjects treated with the methods of the present invention to measure changes in corneal elasticity. The method used involved the application of the indentor, in the form of a small spherical ball to gently deflect into a test cornea to establish an initial deflection value. Measurements were taken by using an interferometer to view the deflection. Following this application, the relaxation period was measured by observing the change in the impression made by the indentor.
# The indentation range of movement was characterized using a precision linear variable differential transducer (LVDT) device that measured the linear travel of a stage carrying the indentor probe. The average travel distance of the probe was established at approximately 700 micrometers. The contact depth of the indentor probe was measured by evaluating the corneal surface immediately after indentation and measuring the local height values caused by the probe contact. This value was measured to range from 266 to 300 micrometers.
# A digital timer was used to mark the beginning and ending times during observation. Changes in the impression were readily observed during this period. The final end point was considered to be when the local fringe disturbance was recovered blending with the undisturbed neighboring fringes. […] However, given the time scales involved, the value of this error is considered to be small.
# The method of inducing corneal inflection involved first contacting the test corneal with the indentor. After the initial contact with the cornea was established, the probe was moved forward into the cornea to a predetermined distance. Seven hundred microns was used to achieve adequate deflection. Topography was taken immediately after the deflection to record the impression made in the cornea. Observations of the cornea were then made at one (1) minute intervals to note the change in the impression made. […] Another topography was done after five (5) minutes to record the final condition of the impression. […]
smiles,measurement,setting,value
O=CC(O)CO (centres unmarked) [glyceraldehyde],"clinical observations (slit lamp scores), statistical analysis vs control group",[1],no differences between the groups
same,pathologic finding in eyes after scraping and healing,Dutch Belted rabbit eyes,superficial scar in the corneal stroma and disruption of Bowman's membrane
same,corneal findings in all patients,[2],Normal corneas
same,time for cornea to recover from indentation,cornea; after about two weeks of glyceraldehyde solution drops,20 to 30 s
same,change in corneal elasticity after treatment,"cornea; glyceraldehyde solution drops, from more rapid indentation recovery",more elastic

# From patent US6537545B1, “Use of corneal hardening agents in enzymeorthokeratology” (ISTA Pharmaceuticals, Inc., priority 1998, dated 2003)
